SMILES strings stand for the structures.

The nature of this series: Human HepG2 cell viability assay in 384 well format. Also on record: dose 125 nL, time 70.5 hour; cytotoxicity at 70.5 h: concentration not given beside the values. Type of series: toxicity, cell-based. Particulars: HepG2 cells, read-out: Inhibition.
`Cc1nnc2n1CCN(C(C(N)=O)c1ccc(F)cc1)C2` (configuration not stated): the cytotoxicity at 70.5 h was -16.8%.
As for `Cc1nn(Cc2ccc(F)cc2)c2[nH]nc(N)c12`, the cytotoxicity at 70.5 h was -9.36%.
In the case of `O=C(Nc1ccc(F)c(Br)c1)N1CCCC1` it was -1.36%; in that of `Cc1ccc(-c2nnc([C@H]3CCN(C4CCC4)C3)o2)cc1`, 16.3%.
With `COc1ccc(-c2nnc([C@H]3CCN(C4CCC4)C3)o2)cc1` the figure was -0.264%; with `CC(C)(C)CN1CC[C@H](c2nnc(Cc3c[nH]c4ccccc34)o2)C1`, 15.2%.
Regarding `O=C1CO[C@H]2CN(C3CCOCC3)C[C@H]2N1Cc1ccc(F)cc1`, the cytotoxicity at 70.5 h stood at 16.1%.
`Fc1cccc(-c2c[nH]c([C@@H]3COCCN3C3CCOCC3)n2)c1`: the cytotoxicity at 70.5 h was -8.23%.
Consider `Cc1ccc2[nH]c([C@H]3CCN(CC4CCCCC4)C3)nc2c1`, for which the cytotoxicity at 70.5 h is 5.77%.
With `Cc1ccc(CNC2(Cc3cc(CC(C)C)on3)COC2)o1`, the cytotoxicity at 70.5 h amounted to 9.27%.
`CC1(C)[C@H](Cc2cc(CN3CCCCC3)on2)C[C@@H]1NC(=O)C1CC1`: the cytotoxicity at 70.5 h turned out to be 10.2%.
In the case of `CC[C@H]1CN2CC[C@H]1C[C@@H]2CNCc1cccc(C#N)c1` it was 13%.
Regarding `Cc1ccccc1CN1CC[C@H](c2nnc(-c3cncn3C)o2)C1`, the cytotoxicity at 70.5 h was determined as 1.18%.
With `c1cncc(-c2nnc([C@H]3CCN(CC4CC4)C3)o2)c1` the figure was 8.27%; with `Fc1ccc(OCc2nnc([C@H]3CCN(Cc4ccccn4)C3)o2)cc1`, -7.48%; with `CC(C)N1CC[C@H](c2nnc(Cc3c[nH]c4ccccc34)o2)C1`, -4.41%.
In the case of `F[C@@H]1CN(Cc2cccnc2)C[C@@H]1OCc1nc2ccccc2[nH]1` it was -3.79%; in that of `CN1C(=O)CO[C@H](c2ccc(NC(=O)NC(C)(C)C)cc2)[C@H]1CO`, -0.339%.
In the case of `N#Cc1ccc(CN2C[C@@H](F)[C@@H](OCc3nc4cnccc4[nH]3)C2)cc1` it was -1.95%.
Consider `COc1ccccc1CN1C[C@@H](F)[C@@H](OCc2nc3cnccc3[nH]2)C1`, for which the cytotoxicity at 70.5 h was -4.23%.
In the case of `F[C@@H]1CN(CC2CC2)C[C@@H]1OCc1nc2ccccc2[nH]1` it was 14.4%; in that of `Cc1cccc2c1nc1n2[C@@H](CNC(=O)c2ccncc2)COC1`, -3.38%; in that of `CC(C)c1cc(NCC(C)N2CCCC2)n2nccc2n1` (configuration not stated), -10.1%.
With `CN(CCO)C[C@@H]1CN(C(=O)c2c(F)cccc2Cl)C[C@@H]1CO`, the cytotoxicity at 70.5 h is -8.11%.
With `O=C(c1cccnc1)N1C[C@@H]2CC[C@H](C1)N(Cc1ncc[nH]1)C2` the figure was -7.7%.
Turning to `Cc1cc(NCc2cc3n(n2)CCCN(S(C)(=O)=O)C3)ncn1`, the cytotoxicity at 70.5 h is -5.23%.
For the molecule `CC(C)=CCN1C(=O)[C@H]2CC[C@@H]1CN(Cc1cccnc1N)C2`, the cytotoxicity at 70.5 h was -4.57%.
Consider `O=C(CCc1cc2n(n1)CCCN(Cc1ccccc1F)C2)NC1CC1`, for which the cytotoxicity at 70.5 h was 0.504%.
As for `Cc1cc2c(cc1C(=O)N1CC[C@H](CO)[C@@H](O)C1)OCCO2`, the cytotoxicity at 70.5 h was -7.62%.
For the molecule `O=C(Cc1ccc2c(c1)OCO2)N1CCCN(c2ccccc2)CC1`, the cytotoxicity at 70.5 h was -4.44%.
Regarding `COc1cccc2c1OCC(C(=O)N1CCN(S(C)(=O)=O)CC1)C2` (configuration not stated), the cytotoxicity at 70.5 h was found to be 20.3%.
With `Cc1ccc(C(=O)N2CCN(S(C)(=O)=O)CC2)cc1N1CCNC1=O` the figure was -1.5%; with `O=C(c1cc(COc2ccc3c(c2)OCO3)[nH]n1)N1CCCC1`, -5.85%.
With `CCn1c(CN(C)C)nnc1C1CCN(Cc2cccc(OC)c2)CC1` the figure was 4.9%.
As to `CN(C)Cc1ccc(C2CCCCN2C(=O)c2cccc(CO)n2)cc1` (configuration not stated), the cytotoxicity at 70.5 h stood at 23.6%.
In the case of `Clc1ccccc1C1(c2ccnc(-c3ccncc3)n2)CCNCC1` it was -5.92%; in that of `Cc1ccc([C@@H]2CN(C(=O)c3csc(C)n3)C[C@H]2NC(=O)C2CC2)cc1`, -12.3%.
Regarding `CCC(=O)N1CCc2[nH]cnc2C12CCN(C(=O)CCS(C)(=O)=O)CC2`, the cytotoxicity at 70.5 h was -1.4%.
Take `CN(Cc1cccc(O)c1)CC1CCCN(CCc2ccc(Cl)cc2)C1` (configuration not stated): the cytotoxicity at 70.5 h is 10.2%.
In the case of `CN(C)CC(=O)N1CCCC2(CCC(=O)N(CCc3c[nH]cn3)C2)C1` (configuration not stated) it was -14.8%; in that of `COCc1cc(NCc2cc(F)ccc2F)n2nccc2n1`, -0.226%.
In the case of `CN(CCc1ccccc1)C1CCCN(Cc2nccn2C)C1` (configuration not stated) it was -4.92%.
With `Cc1cc(N2CCN(Cc3nccn3C)CC2)cc(C)n1` the figure was 18.4%; with `CN(C)C(=O)CN1C[C@@H]2CC[C@H](C1)N(Cc1cccc(Cl)c1Cl)C2`, 7.51%; with `Fc1ccccc1Cc1noc(CN2CCCC(CN3CCCC3)C2)n1` (configuration not stated), -2.47%.
`CCCN(CCO)C(=O)C1CCC(=O)N(CCc2ccc(Cl)cc2)C1` (configuration not stated): the cytotoxicity at 70.5 h was -4.6%.
With `CSc1ccc(-c2nc(CN3CCC(NC(C)=O)C3)c(C)o2)cc1` (configuration not stated) the figure was -1.58%; with `CC(CN1CCOCC1)NCC1CCN(c2cnn(C)c(=O)c2)CC1` (configuration not stated), -4.8%; with `CC(C)CCc1noc(CN2CCCN(C(=O)c3ccco3)CC2)n1`, -0.918%.
In the case of `Cn1cccc1-c1cc(C(=O)N2CC(c3cccnc3)C2)[nH]n1` it was -5.83%.
As for `CSc1ncccc1C(=O)N1C[C@H]2CC[C@@H]1CN(c1cnccn1)C2`, the cytotoxicity at 70.5 h was -10.6%.
As to `O=C1CC2(CCN(CCO)CC2)CN1Cc1cc(F)cc(F)c1`, the cytotoxicity at 70.5 h is -7.72%.
In the case of `COCCN(C)C[C@@H]1CN(C(=O)c2ccoc2)C[C@@H]1CO` it was -7.32%; in that of `COc1ccc2c(c1)CCN(CCC(=O)O)CC2`, 12.3%.
For `Cc1ccsc1CN(Cc1ccccn1)CC(C)C`, the cytotoxicity at 70.5 h is -6.06%.
As for `CCCc1cc(C(=O)N(C)Cc2cnc3ccccc3n2)n(C)n1`, the cytotoxicity at 70.5 h was -4.51%.
Take `CC(C)c1cc(NCC(O)c2ccc(F)cc2)n2nccc2n1` (configuration not stated): the cytotoxicity at 70.5 h amounted to 0.769%.
In the case of `N#CC1CCCN(c2nc(-c3ccccc3)nc3c2CCNCC3)C1` (configuration not stated), the cytotoxicity at 70.5 h amounted to 6.37%.
In the case of `Cc1nc[nH]c1-c1nc2cc(S(=O)(=O)N3CCCC3)ccc2n1C` it was -2.05%; in that of `CN1CC(c2ccccc2)CC12CCN(C(=O)c1c(Cl)cnn1C)CC2` (configuration not stated), -7.56%.
For `COC(C(=O)N1CCN(c2cccc(Cl)c2)C(=O)C1)c1ccccc1` (configuration not stated), the cytotoxicity at 70.5 h is -7.64%.
In the case of `Cc1ccccc1CSc1nc(N)cc(N2CC[C@@H](O)C2)n1` it was -6.37%; in that of `Cc1nc(CN2CCCC2c2nc(C(C)C)no2)cs1` (configuration not stated), -2.96%.
On to `Cc1nc(N2CCN(C)CC2)ncc1C(=O)N1CC(C)(C)C(C)(O)C1` (configuration not stated), for which the cytotoxicity at 70.5 h worked out at 14.1%.
With `CN(C)CCNC(=O)c1ccc(OC2CCN(S(C)(=O)=O)CC2)c(Cl)c1`, the cytotoxicity at 70.5 h is -9.41%.
As to `Cc1ccc(F)cc1C(=O)N1C[C@@H](CN2CCOCC2)[C@@H](CO)C1`, the cytotoxicity at 70.5 h was -6.59%.
Consider `C[C@@H]1CN(C2(C(=O)N3CCOCC3)Cc3ccccc3C2)C[C@H](C)O1`, for which the cytotoxicity at 70.5 h is 2.82%.

For the origin of these results see ChEMBL document CHEMBL3507680, “University of Dundee, Gates Library screen for HepG2 cell viability”.
